Key:
[1] = test system: α2-adrenergic receptors; test: In vivo α2-antagonism test: reestablishment of the righting reflex lost through xylazine in rats; parameters: species or system rat; conditions: xylazine-induced loss of righting reflex
Method: (§1) In vivo α2 -antagonism test
(§2) The α2 -antagonist properties of the compounds of the invention were determined according to a method described by F. Colpaert et al., (DRUG Development Research 7, 125-140, 1986) by measuring the effects produced by those compounds on the loss of the correcting reflex and exophthalmia induced in rats by xylazine, a known agonist of α2-adrenergic receptors in the central nervous system.
(§3) The reestablishment of the righting reflex measures the α2 -antagonist potential of the compounds, whilst the return of the eye to a normal position measures the α1 -antagonist potential.

[2] = test system: α1; test: In vivo test: return of the eye to a normal position (xylazine-induced exophthalmia) in rats, α1-antagonist potential; parameters: species or system rat
Method: as §1, §2, §3

## Cl.FC(F)(F)C(Cc1c[nH]cn1)c1ccccc1 (centres unmarked) [Example 2, 4-(2-Phenyl-3,3,3-trifluoropropan-1-yl)-imidazole hydrochloride]
[1]
  ED50 (α2): 5 mg/kg
[2]
  ED50 (α1): higher than 10 mg/kg
